Source: ChEMBL document CHEMBL1126455, “Syntheses of new metabolically stabilized TXA2/PGH2-receptor antagonists and their biological properties” (1992)

Experiments:
[1] = molecular target: T1, Thromboxane A2 receptor (Homo sapiens) (UniProt P21731); test: Competition factor for Thromboxane A2 receptor/Prostaglandin H2 receptor was determined by CF=(ID50-test)/(ID50-standard)
T1 sequence (whole entry): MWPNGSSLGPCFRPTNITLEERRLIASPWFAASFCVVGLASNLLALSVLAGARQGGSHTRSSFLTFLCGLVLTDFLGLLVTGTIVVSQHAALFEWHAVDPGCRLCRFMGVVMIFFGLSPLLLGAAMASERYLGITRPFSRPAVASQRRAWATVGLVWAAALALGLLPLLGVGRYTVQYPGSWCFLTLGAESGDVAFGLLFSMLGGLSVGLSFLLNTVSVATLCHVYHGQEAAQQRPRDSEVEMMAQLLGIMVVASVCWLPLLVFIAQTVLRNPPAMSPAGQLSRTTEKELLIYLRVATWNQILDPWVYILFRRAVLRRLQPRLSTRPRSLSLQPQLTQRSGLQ

[2] = species on record: Homo sapiens; test: Potency of was determined relative to the SQ 29548 by inhibition of aggregation of human platelet rich plasma induced by 10*-6 M U 46619; type: functional

CF [1] | SMILES | Potency [2]
0.4 | O=C(O)COCCCC[C@H]1[C@H](CNS(=O)(=O)c2ccc(Cl)c(Cl)c2)C2CC1(c1ccc(F)cc1)CO2 (some centres not stated) | 0.08
0.4 | Cc1ccc(S(=O)(=O)NC[C@@H]2C3CC(c4ccc(F)cc4)(CO3)[C@H]2CCCCOCC(=O)O)cc1 (some centres not stated) | 0.03
27 | Cc1ccc(S(=O)(=O)N[C@@H]2C3CC(c4ccc(F)cc4)(CO3)[C@H]2CCCCOCC(=O)O)cc1 (some centres not stated) | 0.003
0.3 | O=C(O)CCC/C=C\C[C@H]1[C@H](CNS(=O)(=O)c2ccc(F)cc2)C2CC1(c1ccc(F)cc1)CO2 (some centres not stated) | 0.03
400 | O=C(O)COCC=CC[C@H]1[C@H](NS(=O)(=O)c2ccc(F)cc2)C2CC1(c1ccc(F)cc1)CO2 (some centres not stated) | 0.003
0.1 | O=C(O)COCCCC[C@H]1[C@H](CNS(=O)(=O)c2ccc(Cl)cc2)C2CC1(c1ccc(F)cc1)CO2 (some centres not stated) | 0.08
4.2 | O=C(O)CCC/C=C\C[C@H]1[C@H](CNS(=O)(=O)c2ccc(Cl)c(Cl)c2)C2CC1(c1ccc(-c3ccccc3)cc1)CO2 (some centres not stated) | 0.01
3 | O=C(O)COCCCC[C@H]1[C@H](CNS(=O)(=O)c2ccc(Cl)c(Cl)c2)C2CC1(c1ccc(-c3ccccc3)cc1)CO2 (some centres not stated) | 0.03
45 | Cc1ccc(S(=O)(=O)N[C@@H]2C3CC(c4ccc(F)cc4)(CO3)[C@H]2C/C=C\CCCC(=O)O)cc1 (some centres not stated) | 0.001
0.5 | O=C(O)COCCCC[C@H]1[C@H](CNS(=O)(=O)c2ccc(F)cc2)C2CC1(c1ccc(F)cc1)CO2 (some centres not stated) | 0.08
0.5 | O=C(O)CCC/C=C\C[C@H]1[C@H](CNS(=O)(=O)c2ccc(Cl)c(Cl)c2)C2CC1(c1ccc(F)cc1)CO2 (some centres not stated) | 0.01
12 | O=C(O)CCCCCC[C@H]1[C@H](CNS(=O)(=O)c2ccc(Cl)c(Cl)c2)C2CC1(c1ccc(-c3ccccc3)cc1)CO2 (some centres not stated) | 0.01
120 | O=C(O)CCC/C=C\C[C@H]1[C@H](NS(=O)(=O)c2ccc(F)cc2)C2CC1(c1ccc(F)cc1)CO2 (some centres not stated) | 0.0004
170 | Cc1ccc(S(=O)(=O)N[C@@H]2C3CC(c4ccc(F)cc4)(CO3)[C@H]2C/C=C\COCC(=O)O)cc1 (some centres not stated) | 0.003
0.4 | Cc1ccc(S(=O)(=O)NC[C@@H]2C3CC(c4ccc(F)cc4)(CO3)[C@H]2C/C=C\CCCC(=O)O)cc1 (some centres not stated) | 0.01
0.2 | O=C(O)CCC/C=C\C[C@H]1[C@H](CNS(=O)(=O)c2ccc(Cl)cc2)C2CC1(c1ccc(F)cc1)CO2 (some centres not stated) | 0.01
